Test results published in paper PMC6199744, “Development of Chemical Proteomics for the Folateome and Analysis of the Kinetoplastid Folateome” (ACS Infectious Diseases, 2018).
Read-outs that look alike come from different tables or passages of the source.

Assays:
Type in all cases: binding
[1] = biological target: T1, HeLa cell extract proteins (Homo sapiens, UniProt P06454)
T1 construct: endogenous in cells; host or cells: HeLa cell extract
T1 sequence (P06454 1-111): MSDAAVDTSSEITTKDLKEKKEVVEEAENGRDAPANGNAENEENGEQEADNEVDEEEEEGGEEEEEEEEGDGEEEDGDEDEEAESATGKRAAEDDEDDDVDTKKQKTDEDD

[2] = biological target: T2, HeLa cell extract proteins (Homo sapiens, UniProt Q53R41)
T2 construct: endogenous in cells; host or cells: HeLa cell extract
T2 sequence (Q53R41 1-847): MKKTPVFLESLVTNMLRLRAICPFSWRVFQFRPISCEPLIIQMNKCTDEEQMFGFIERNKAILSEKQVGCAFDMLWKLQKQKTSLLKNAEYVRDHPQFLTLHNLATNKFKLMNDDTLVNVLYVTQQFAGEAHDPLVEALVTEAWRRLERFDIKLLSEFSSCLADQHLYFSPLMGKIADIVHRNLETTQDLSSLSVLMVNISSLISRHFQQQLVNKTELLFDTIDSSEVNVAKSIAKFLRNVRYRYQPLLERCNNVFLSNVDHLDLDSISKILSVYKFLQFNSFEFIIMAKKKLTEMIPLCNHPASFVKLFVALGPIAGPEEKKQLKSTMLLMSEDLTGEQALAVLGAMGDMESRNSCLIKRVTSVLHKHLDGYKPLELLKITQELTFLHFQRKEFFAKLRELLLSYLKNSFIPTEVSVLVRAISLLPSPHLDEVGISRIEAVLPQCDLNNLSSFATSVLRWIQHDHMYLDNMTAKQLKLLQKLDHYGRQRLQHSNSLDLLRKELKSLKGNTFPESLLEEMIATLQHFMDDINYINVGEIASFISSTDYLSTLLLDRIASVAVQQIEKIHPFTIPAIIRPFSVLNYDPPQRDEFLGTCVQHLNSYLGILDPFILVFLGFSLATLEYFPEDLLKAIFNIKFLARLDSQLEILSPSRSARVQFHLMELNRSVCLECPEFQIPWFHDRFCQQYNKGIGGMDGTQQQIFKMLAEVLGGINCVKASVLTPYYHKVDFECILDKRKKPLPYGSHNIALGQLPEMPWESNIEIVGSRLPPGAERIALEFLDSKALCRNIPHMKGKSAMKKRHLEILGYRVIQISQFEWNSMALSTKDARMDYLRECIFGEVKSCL

[3] = biological target: T3, HeLa cell extract proteins (Homo sapiens, UniProt P25205)
T3 construct: endogenous in cells; host or cells: HeLa cell extract
T3 sequence (P25205 1-808): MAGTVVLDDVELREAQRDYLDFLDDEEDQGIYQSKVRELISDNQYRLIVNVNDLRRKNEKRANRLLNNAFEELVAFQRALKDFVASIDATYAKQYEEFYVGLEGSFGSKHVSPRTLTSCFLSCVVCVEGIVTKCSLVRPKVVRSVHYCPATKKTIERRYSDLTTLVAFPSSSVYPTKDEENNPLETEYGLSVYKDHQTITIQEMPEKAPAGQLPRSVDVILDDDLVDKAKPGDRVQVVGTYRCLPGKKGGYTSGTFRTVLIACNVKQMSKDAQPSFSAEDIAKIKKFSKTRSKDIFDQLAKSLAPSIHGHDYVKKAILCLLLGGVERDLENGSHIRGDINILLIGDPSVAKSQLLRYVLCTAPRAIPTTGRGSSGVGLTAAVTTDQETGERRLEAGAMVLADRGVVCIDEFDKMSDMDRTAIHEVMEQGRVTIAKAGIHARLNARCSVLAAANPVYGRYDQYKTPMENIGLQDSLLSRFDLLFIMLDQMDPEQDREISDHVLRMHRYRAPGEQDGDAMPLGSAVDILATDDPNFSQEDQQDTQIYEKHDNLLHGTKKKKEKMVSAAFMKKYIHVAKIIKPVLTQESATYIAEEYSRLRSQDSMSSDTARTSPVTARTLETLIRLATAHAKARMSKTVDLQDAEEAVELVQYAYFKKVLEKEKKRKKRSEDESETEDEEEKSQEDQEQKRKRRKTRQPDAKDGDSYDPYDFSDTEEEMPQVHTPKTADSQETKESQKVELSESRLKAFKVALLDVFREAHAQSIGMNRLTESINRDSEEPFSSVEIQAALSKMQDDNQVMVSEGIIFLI

[4] = biological target: T4, HeLa cell extract proteins (Homo sapiens, UniProt P32119)
T4 construct: endogenous in cells; host or cells: HeLa cell extract
T4 sequence (P32119 1-198): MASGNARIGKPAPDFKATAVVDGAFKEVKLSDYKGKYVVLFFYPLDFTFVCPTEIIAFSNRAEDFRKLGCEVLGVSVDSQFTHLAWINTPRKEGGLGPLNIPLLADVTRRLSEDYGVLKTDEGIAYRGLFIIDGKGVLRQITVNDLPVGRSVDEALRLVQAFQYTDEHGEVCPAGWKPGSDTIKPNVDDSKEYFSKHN

[5] = HeLa, protein PTMA (15 KDA PROTEIN.)

Compound | fold changes relative to vehicle control ([1]; protein PTMA, HeLa) | fold changes relative to vehicle control ([2]; HeLa, protein FASTKD1) | fold changes relative to vehicle control ([3]; HeLa, protein MCM3) | fold changes relative to vehicle control ([4]; HeLa, captured protein PRDX2) | fold changes relative to vehicle control [1, 5] [fold] | fold changes relative to vehicle control ([2]; captured protein FASTKD1, HeLa) | fold changes relative to vehicle control ([3]; protein MCM3, HeLa) | fold changes relative to vehicle control ([4]; protein PRDX2, HeLa) | other results
Nc1nc2c(c(=O)[nH]1)N(C=O)C(CNc1ccc(C(=O)N[C@@H](CCC(=O)O)C(=O)O)cc1)CN2 (stereo partly shown) [LEU, leucovorin] | 0.82 | 0.85 | 0.91 | 1.05 | – | – | – | – | –
NCCCNc1ccc(C(=O)NC(CCC(=O)O)C(=O)O)cc1 (stereo not shown) [compound 7] | 0.72 | 0.84 | 0.93 | 0.89 | – | – | – | – | –
CCCCCCOc1cccc(Cc2cnc(N)nc2N)c1 [compound 2] | – | – | – | – | 3.52 | 1.08 | 1.38 | 2.19 | –
CCCCCCOc1ccc(Cc2cnc(N)nc2N)cc1 [compound 1] | – | – | – | – | 1.18 | 0.96 | 0.94 | 1.36 | –
Nc1nc2cccc(-c3ccccc3)c2n1Cc1ccc(Cl)c(Cl)c1 [compound 3] | – | – | – | – | 0.68 | 0.98 | 1.29 | 0.89 | –
NCCOCCOCC(=O)Nc1nc2ncc(CNc3ccc(C(=O)NC(CCC(=O)O)C(=O)O)cc3)nc2c(=O)[nH]1 (stereo not shown) [compound 6] | 0.89 | 0.87 | 1.01 | 1.18 | – | – | – | – | –
Nc1nc2[nH]cc(CCc3ccc(C(=O)N[C@@H](CCC(=O)O)C(=O)O)cc3)c2c(=O)[nH]1 [PTX, pemetrexed] | – | – | – | – | – | – | – | – | fold changes relative to vehicle control [1]: 0.97; fold changes relative to vehicle control [2]: 0.83; fold changes relative to vehicle control [3]: 1.03; fold changes relative to vehicle control [4]: 1.17
